Test results taken from patent US12002595B2, “Separation of metal ions by liquid-liquid extraction” (priority 2016, dated 2024).

Key:
[1] = Persistence of the metal complex versus acidity; type: binding; conditions: Zr^4+
[2] = Back-extraction from 30% TBP in kerosene (modified PUREX) with 343HOPO; conditions: 1 mM 343HOPO, up to 8 M HNO3
Protocol: Dotted lines: separation factor U/Pu. Organic phase: 30% TBP in kerosene.
(§1) For Example 20—Example 24, pH measurements were performed with a glass electrode (Metrohm-Micro Combi-response to [H+]) calibrated at 25.0° C. using three NIST standards. Extraction samples were analyzed by liquid scintillation counting (LSC). The distribution coefficient, D(M), of a given metal, M, is defined in Eq. 1, where [M]organic and [M]aqueous are the respective total concentrations of M in the organic and aqueous layers, after extraction. Both concentrations are proportional to the volumetric activity (in Bq/L) determined by LSC. The separation factor, SFM1/M2, between two metals, M1 and M2, and extraction yield were calculated according to Eq. 2 and Eq. 3, respectively.
In a typical experiment, the solvent (extractant diluted in kerosene) was pre-conditioned by shaking one volume of solvent with three volumes of aqueous phase (typically HNO3) at room temperature for 1 h, thrice. […] Samples were counted for at least 6 min and results were background subtracted. […] Mixtures of ^249Bk and ^249Cf were analyzed using α/β discrimination and energy windows were set to 0-50 keV for low-energy β particles of ^249Bk and 50-1000 keV for α particles of ^249Cf. ^243Am and ^225Ac samples were counted at secular equilibrium.

[3] = Extraction by TODGA from HNO3 in the absence or presence of 1 mM 343HOPO
Protocol: Aqueous phase: 0 or 1 mM 343HOPO in HNO3. Organic phase: 0.1 M TODGA in kerosene. T=25° C. O/A=1, one contact. Points with arrows are lower limits.
Aqueous phase: 1 mM 343HOPO in 3 M HNO3. Organic phase: TODGA in kerosene. O/A=1. One contact. T=25° C.
as §1
(§2) In a typical experiment, the solvent (extractant diluted in kerosene) was pre-conditioned by shaking one volume of solvent with three volumes of aqueous phase (typically HNO3) at room temperature for 1 h, thrice. For radioisotope extractions, at least 400 μL aqueous phase (typically containing HNO3, a chelator and a radioisotope) and solvent were placed in air-tight screw-capped plastic tubes, triply-contained, and shaken in a thermoshaker at 300 rpm, 25° C., for at least 30 min. Samples were then centrifuged for 5 min at 3000 rpm and phases separated before analysis. LSC analyses were performed on a Packard Tri-Carb B4430 instrument (Perkin Elmer) after mixing sample aliquots or sample dilution aliquots (10 to 200 μL) with 10 mL of scintillation cocktail (UltimaGold LLT). Samples were counted for at least 6 min and results were background subtracted. The analytical samples contained between 0 and 800,000 CPM. Mixtures of ^249Bk and ^249Cf were analyzed using α/β discrimination and energy windows were set to 0-50 keV for low-energy β particles of ^249Bk and 50-1000 keV for α particles of ^249Cf. ^243Am and ^225Ac samples were counted at secular equilibrium.

[4] = Extraction by HDEHP at constant pH with 3,4,3-LI(1,2-HOPO) as hold-back reagent; conditions: 1 mM ligand; for % Extraction: 0.1 M HNO3/1.9 M NaNO3, extraction of ^153Gadolinium(III); for SF Gd^3+/Pu^4+: to be seen as lower limit
Protocol: In FIG. 26, aqueous phase: [ligand]=1 mM, buffer 0.1 M HNO3/1.9 M NaNO3. Organic phase: HDEHP diluted in kerosene. [HDEHP]=0.05, 0.10, 0.25, 0.50, 1.0, or 2.0 M. T=25° C. Volume organic phase/Volume aqueous phase=1. Initial metal concentrations: [Pu-242]=10 μM, [Am-243]=0.25 μM, or [Gd-153]=0.16 nM. Phases analyzed after one contact. Contact time: 30 min.
The separation factor values given here must been seen as lower limit since the extraction of Pu(IV) is near zero. […]

[5] = Extraction by TODGA from HNO3 in the absence or presence of 1 mM 343HOPO; remark: listed apart in the source
Protocol: Organic phase: 0.1 M TODGA in kerosene. Aqueous solvent: HNO3. T=25° C. O/A=1, one contact. Points with arrows are lower limits.
as §1, §2

In the case of `O=C(NCCCN(CCCCN(CCCNC(=O)c1cccc(=O)n1O)C(=O)c1cccc(=O)n1O)C(=O)c1cccc(=O)n1O)c1cccc(=O)n1O` [3,4,3-LI(1,2-HOPO)], the “acidity range over which the ligand stays bound” value [1] is reported as “from pH 8 to strongly acidic solutions (at least 6 M HCl)”, the SFU/Pu [2] is reported as ≤ 5,800 and the “SF, isolation of Bk from adjacent actinides and fission products” value ([3]; one-step separation method, summary statement) is reported as > 3×10^6. For the same molecule, the SFCf/Bk ([3]; regardless of the TODGA and HNO3 concentrations) was > 1,000,000, the Bk extracted ([3]; throughout the acidity range, 1 mM 343HOPO, 0.1 M TODGA) was “less than 1%” and the “% Extraction” value ([4]; HDEHP 0.05 M) was 4.92%. For the same molecule, the “SF Gd^3+/Pu^4+” value ([4]; HDEHP 0.05 M) was 331, the “% Extraction” value ([4]; HDEHP 0.10 M) was 23.79% and the “SF Gd^3+/Pu^4+” value ([4]; HDEHP 0.10 M) was 1948. The “% Extraction” value ([4]; HDEHP 0.25 M) was 73.91%, the “SF Gd^3+/Pu^4+” value ([4]; HDEHP 0.25 M) was 5976 and the “% Extraction” value ([4]; HDEHP 0.50 M) was 92.15%. For the same molecule, the “SF Gd^3+/Pu^4+” value ([4]; HDEHP 0.50 M) was 39182, the “% Extraction” value ([4]; HDEHP 1.00 M) was 97.85% and the “SF Gd^3+/Pu^4+” value ([4]; HDEHP 1.00 M) was 28460. The “% Extraction” value ([4]; HDEHP 2.00 M) was 99.26%, the “SF Gd^3+/Pu^4+” value ([4]; HDEHP 2.00 M) was 64723 and the SFU/Pu ([5]; 1 mM 343HOPO, 0.1 M TODGA in kerosene) was “around 50,000”. For the same molecule, the “SF values between the trivalent ions and Pu^4+” value ([5]; 1 mM 343HOPO, 0.1 M TODGA in kerosene, LoD reached) was “above 450,000,000” and the “separation factor for redox-free Pu purification against uranyl ions and trivalent actinides or fission products” value ([5]; summary statement) was “over 10^8”.
